Measured values: patent publication US8703811B2, “Small molecule inhibitors of Plasmodium falciparum dihydroorotate dehydrogenase” (Genzyme Corporation, priority 2008, dated 2014)
Like-named read-outs stand apart in the source and are kept apart here.

Key:
P. falciparum 3D7 = experiment: Inhibition of in vitro P. falciparum culture, [3H]-hypoxanthine uptake, 3D7; assay type: cell-based
Protocol: (§1) P. falciparum strains D10, 3D7, HB3, and Dd2 were obtained from the Malaria Research and Reference Reagent Resource Center (Manassas, Va.). The parasite strains were maintained in vitro by method of Trager and Jensen. The inhibition of P. falciparum growth in the presence of drug was assessed by the relative reduction of [^3H]-hypoxanthine uptake as previously described. Inhibition data were fitted to Equation 1 using non-linear regression analysis except that the relative velocity of parasite growth was substituted for the rate of product formation.

P. falciparum Dd2 = experiment: Inhibition of in vitro P. falciparum culture, [3H]-hypoxanthine uptake, Dd2; assay type: cell-based
Protocol: as §1

hsDHODH = hsDHODH (Homo sapiens (Human), UniProt Q02127); experiment: DCIP assay, hsDHODH; assay type: biochemical; details: Table 2b; read-out: Hu (human DHODH) IC50
Sequence of hsDHODH (Q02127 29-395 limits assumed): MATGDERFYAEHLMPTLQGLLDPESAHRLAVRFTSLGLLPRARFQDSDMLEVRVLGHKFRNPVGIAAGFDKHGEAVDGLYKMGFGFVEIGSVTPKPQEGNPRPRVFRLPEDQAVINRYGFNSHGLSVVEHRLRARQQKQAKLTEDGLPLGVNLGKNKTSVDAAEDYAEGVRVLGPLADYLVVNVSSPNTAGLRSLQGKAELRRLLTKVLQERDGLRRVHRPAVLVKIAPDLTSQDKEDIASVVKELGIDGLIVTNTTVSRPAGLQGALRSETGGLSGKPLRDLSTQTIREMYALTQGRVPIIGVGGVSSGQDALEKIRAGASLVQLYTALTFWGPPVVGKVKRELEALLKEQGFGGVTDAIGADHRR
From the text: (§2) Type 2 DHODH activity was monitored with either the direct assay measuring the formation of orotate or via a chromogen reduction assay using DCIP. Although the extinction coefficient and absorption wavelength are preferable for the chromogen reduction assay, the inorganic electron acceptor DCIP can be utilized by DHODH as the final electron acceptor in lieu of CoQn when the endogenous substrate is at a low concentration. As such, the direct assay was used to measure the binding affinity of pfDHODH to CoQD and L-DHO. The enzymatic reaction was performed by varying the L-DHO concentration (1-400 μM) or CoQD concentration (1-200 μM) while keeping the other substrate constant and in excess. The formation of orotate was measured continuously at 296 nm (ε296=4.3 mM^−1 cm^−1). Inhibition of DHODH by small molecules was evaluated using the chromogen based assay with a final substrate concentration of 200 μM L-DHO, 18 μM CoQD, and 100 μM DCIP, unless otherwise noted. The reduction of DCIP was monitored at 600 nm (ε600=18.8 mM^−1 cm^−1).
(§3) Substrate specificity and enzyme inhibition data was analyzed with GraphPad Prism Version 4 for Windows (GraphPad Software). Kinetic constants were calculated by non-linear regression fitting of the data to the Michaelis-Menten equation [36]. IC50 values were determined by non-linear regression fitting of the data to Equation 1: […]

pfDHODH = pfDHODH (Plasmodium falciparum (isolate 3D7), UniProt Q08210); experiment: DHODH chromogen reduction (DCIP) assay, pfDHODH; assay type: biochemical, P. falciparum
Sequence of pfDHODH (Q08210 159-565 limits assumed): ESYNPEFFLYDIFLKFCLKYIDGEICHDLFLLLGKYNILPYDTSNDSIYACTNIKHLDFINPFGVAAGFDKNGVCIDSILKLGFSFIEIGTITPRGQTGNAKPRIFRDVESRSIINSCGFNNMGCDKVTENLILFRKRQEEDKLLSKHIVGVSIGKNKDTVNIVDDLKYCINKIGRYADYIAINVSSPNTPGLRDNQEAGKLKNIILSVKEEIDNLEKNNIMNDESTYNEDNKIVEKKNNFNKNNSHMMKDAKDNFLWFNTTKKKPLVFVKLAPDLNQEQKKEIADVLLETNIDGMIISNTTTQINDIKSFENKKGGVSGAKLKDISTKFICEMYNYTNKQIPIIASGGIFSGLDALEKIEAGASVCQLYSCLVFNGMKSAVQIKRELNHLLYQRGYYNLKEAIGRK
From the text: as §2, with “excess.” for “excess. The formation of orotate was measured continuously at 296 nm (ε296=4.3 mM^−1 cm^−1). Inhibition of DHODH by small molecules was evaluated using the chromogen based assay with a final substrate concentration of 200 μM L-DHO, 18 μM CoQD, and 100 μM DCIP, unless otherwise noted. The reduction of DCIP was monitored at 600 nm (ε600=18.8 mM^−1 cm^−1).”
as §3

[1] = Plasmodium falciparum, 3D7, Table 2b, read-out: 3D7 EC50
[2] = Plasmodium falciparum, DD2, Table 2b, read-out: Dd2 EC50
[3] = Table 2b, read-out: pfDHODH IC50

| SMILES | EC50 (P. falciparum 3D7; [1]) | EC50 (P. falciparum Dd2; [2]) | IC50 (hsDHODH) | IC50 (pfDHODH; [3]) | EC50 (P. falciparum 3D7; Table 2b, read-out: 3D7 EC50) | EC50 (P. falciparum Dd2; Table 2b, read-out: Dd2 EC50) | EC50 (P. falciparum 3D7; Plasmodium falciparum, 3D7, read-out: 3D7 EC50, Table 2b) | EC50 (P. falciparum Dd2; Plasmodium falciparum, DD2, read-out: Dd2 EC50, Table 2b) | IC50 (pfDHODH; pfDHODH IC50, Table 2b) |
| --- | --- | --- | --- | --- | --- | --- | --- | --- | --- |
| O=C(NC1CC1)c1ccc(-n2cnc3ccccc32)s1 [Compound 23] | 79 nM | 88 nM | > 30000 nM | 56 nM |  |  |  |  |  |
| CNC(=O)c1ccc(-n2cnc3ccccc32)s1 [Compound 24] | 276 nM | 422 nM | > 30000 nM | 1080 nM |  |  |  |  |  |
| CCNC(=O)c1ccc(-n2cnc3ccccc32)s1 [Compound 25] | 102 nM | 154 nM | > 30000 nM | 145 nM |  |  |  |  |  |
| O=C(NCCO)c1ccc(-n2cnc3ccccc32)s1 [Compound 30] | 5900 nM | 6500 nM | > 30000 nM | 14000 nM |  |  |  |  |  |
| Cc1nc2ccccc2n1-c1ccc(C(=O)NC2CC2)s1 [Compound 31] | 66 nM | 106 nM | > 30000 nM | 99 nM |  |  |  |  |  |
| Cc1nc2ccccc2n1-c1ccc(C(=O)NC2CC2)s1 [Compound 32] |  |  | > 30000 nM | 74 nM | 105 nM | 114 nM |  |  |  |
| CCNC(=O)c1ccc(-n2c(C)nc3ccccc32)s1 [Compound 33] |  |  | > 30000 nM | 191 nM | 113 nM | 223 nM |  |  |  |
| O=C(NC1CCCC1)c1ccc(-n2cnc3ccccc32)s1 [Compound 35] | 4400 nM | 5500 nM | > 30000 nM | 2510 nM |  |  |  |  |  |
| CC(C)NC(=O)c1ccc(-n2cnc3ccccc32)s1 [Compound 36] | 579 nM | 812 nM | > 30000 nM | 684 nM |  |  |  |  |  |
| O=C(NC1CCC1)c1ccc(-n2cnc3ccccc32)s1 [Compound 38] | 408 nM | 442 nM | > 30000 nM | 418 nM |  |  |  |  |  |
| COc1ccc2c(c1)nc(C)n2-c1ccc(C(=O)NC2CC2)s1 [Compound 39] | 180 nM | 247 nM | 24600 nM | 212 nM |  |  |  |  |  |
| Cc1nc2cc(Cl)ccc2n1-c1ccc(C(=O)NC2CC2)s1 [Compound 40] |  |  | > 30000 nM |  |  |  | 88 nM | 120 nM | 58 nM |
| Cc1nc2cc(F)ccc2n1-c1ccc(C(=O)NC2CC2)s1 [Compound 42] |  |  | > 30000 nM | 88 nM | 104 nM | 150 nM |  |  |  |
| Cc1nc2cc(F)ccc2n1-c1ccc(C(=O)NC2CC2)s1 [Compound 43] |  |  | 20300 nM | 104 nM | 39 nM | 36 nM |  |  |  |
| Cc1ccc2c(c1)nc(C)n2-c1ccc(C(=O)NC2CC2)s1 [Compound 44] | 34 nM | 48 nM | > 30000 nM | 56 nM |  |  |  |  |  |
| CCc1nc2ccccc2n1-c1ccc(C(=O)NC2CC2)s1 [Compound 49] | 125 nM | 185 nM | > 30000 nM | 113 nM |  |  |  |  |  |
| CCCNC(=O)c1ccc(-n2c(C)nc3cc(F)ccc32)s1 [Compound 50] | 255 nM | 538 nM | > 30000 nM | 499 nM |  |  |  |  |  |
| CCCNC(=O)c1ccc(-n2c(C)nc3cc(Cl)ccc32)s1 [Compound 51] | 158 nM | 314 nM | > 30000 nM | 239 nM |  |  |  |  |  |
| CCNC(=O)c1ccc(-n2c(C)nc3cc(Cl)ccc32)s1 [Compound 52] | 53 nM | 104 nM | > 30000 nM | 94 nM |  |  |  |  |  |
| CCNC(=O)c1ccc(-n2c(C)nc3cc(F)ccc32)s1 [Compound 53] | 66 nM | 106 nM | > 30000 nM | 164 nM |  |  |  |  |  |

| SMILES | EC50 (P. falciparum 3D7; [1]) | EC50 (P. falciparum Dd2; [2]) | IC50 (hsDHODH) | IC50 (pfDHODH; [3]) | EC50 (P. falciparum 3D7; Table 2b, read-out: 3D7 EC50) | EC50 (P. falciparum Dd2; Table 2b, read-out: Dd2 EC50) | EC50 (P. falciparum 3D7; Plasmodium falciparum, 3D7, read-out: 3D7 EC50, Table 2b) | EC50 (P. falciparum Dd2; Plasmodium falciparum, DD2, read-out: Dd2 EC50, Table 2b) | IC50 (pfDHODH; pfDHODH IC50, Table 2b) |
| --- | --- | --- | --- | --- | --- | --- | --- | --- | --- |
| CCCNC(=O)c1ccc(-n2cnc3cc(Cl)ccc32)s1 [Compound 56] | 203 nM |  | > 30000 nM | 324 nM |  |  |  |  |  |
| Cc1nc2cc(OC(F)(F)F)ccc2n1-c1ccc(C(=O)NC2CC2)s1 [Compound 57] | 33 nM | 60 nM | > 30000 nM | 64 nM |  |  |  |  |  |
| Cc1nc2ccc(OC(F)(F)F)cc2n1-c1ccc(C(=O)NC2CC2)s1 [Compound 58] | 9 nM | 16 nM | > 30000 nM | 36 nM |  |  |  |  |  |
| CCCc1nc2ccccc2n1-c1ccc(C(=O)NCC)s1 [Compound 59] | 382 nM | 467 nM | 19400 nM | 334 nM |  |  |  |  |  |
| Cc1ccc2c(c1)ncn2-c1ccc(C(=O)NC2CC2)s1 [Compound 60] | 20 nM | 21 nM | 24600 nM | 38 nM |  |  |  |  |  |
| CCNC(=O)c1ccc(-n2cnc3cc(C)ccc32)s1 [Compound 61] | 27 nM | 39 nM | 21200 nM | 75 nM |  |  |  |  |  |
| CCNC(=O)c1ccc(-n2c(C)nc3cc(C)ccc32)s1 [Compound 62] | 89 nM | 87 nM | > 30000 nM | 112 nM |  |  |  |  |  |
| CCNC(=O)c1ccc(-n2c(CC)nc3ccccc32)s1 [Compound 63] | 141 nM | 146 nM | > 30000 nM | 137 nM |  |  |  |  |  |
| Cc1nc2cc(C(F)(F)F)ccc2n1-c1ccc(C(=O)NC2CC2)s1 [Compound 64] | 8 nM | 12 nM | 28000 nM | 41 nM |  |  |  |  |  |
| Cc1cccc2c1nc(C)n2-c1ccc(C(=O)NC2CC2)s1 [Compound 65] | 9 nM | 13 nM | > 30000 nM | 42 nM |  |  |  |  |  |
| CCc1nc2cc(F)ccc2n1-c1ccc(C(=O)NC2CC2)s1 [Compound 66] | 136 nM | 253 nM | > 30000 nM | 67 nM |  |  |  |  |  |
| CCCc1nc2ccccc2n1-c1ccc(C(=O)NC2CC2)s1 [Compound 67] | 389 nM | 629 nM | 25600 nM | 180 nM |  |  |  |  |  |
| CCNC(=O)c1ccc(-n2cnc3cc(F)ccc32)s1 [Compound 68] | 90 nM | 132 nM | > 30000 nM | 105 nM |  |  |  |  |  |
| CCNC(=O)c1ccc(-n2c(CC)nc3cc(F)ccc32)s1 [Compound 69] | 226 nM | 361 nM | > 30000 nM | 178 nM |  |  |  |  |  |
| O=C(NC1CC1)c1ccc(-n2cnc3cc(F)ccc32)s1 [Compound 70] | 62 nM | 105 nM | > 30000 nM | 58 nM |  |  |  |  |  |
| Cc1nc(-c2ccccc2)cn1-c1ccc(C(=O)NC2CC2)s1 [Compound 74] | 124 nM | 206 nM | > 30000 nM | 220 nM |  |  |  |  |  |
| CCNC(=O)c1ccc(-n2cc(-c3ccccc3)nc2C)s1 [Compound 75] | 278 nM | 283 nM | > 30000 nM | 416 nM |  |  |  |  |  |
| Cc1nc(-c2ccc(F)cc2)cn1-c1ccc(C(=O)NC2CC2)s1 [Compound 76] | 226 nM | 217 nM | > 30000 nM | 240 nM |  |  |  |  |  |
| CCCCC(=O)c1ccc(-n2cnc3ccccc32)s1 [Compound 84, 1-[5-(1H-benzimidazol-1-yl)-2-thienyl]pentan-1-one] | > 40000 nM | 20000 nM | > 30000 nM | > 30000 nM |  |  |  |  |  |
| Cc1nc2cc3c(cc2n1-c1ccc(C(=O)NC2CC2)s1)OCO3 [Compound 90] | 220 nM | 174 nM | > 30000 nM | 116 nM |  |  |  |  |  |
